The test system of data set [1] is CCRF-CEM. Nature of the data set: Antiviral activity against HIV-I 3b in CEM cells. In kind it is functional, cell-based. As to conditions: Homo sapiens; call rule not given here.
The target in data set [2] is Human immunodeficiency virus type 1 protease (Human immunodeficiency virus 1, UniProt Q72874). The data set can be described thus: Inhibitory activity against HIV protease.
In data set [3] the test system is CCRF-CEM. Nature of the data set: Antiviral activity against HIV-I 3b in CEM cells; No activity. The class given is functional, cell-based, Homo sapiens.
Data set [4] deals with Human immunodeficiency virus type 1 protease (Human immunodeficiency virus 1) (UniProt Q72874). The data set can be described thus: Compound was tested for inhibitory activity against HIV protease. As to conditions: concentration not given here.
Data set [5] is described as follows: Maximum plasma concentration of compound present in rats at the dose of 38 mg/kg in 15 min. The class given is ADME, organism-based. On the set-up: dose 38 mg/kg. As to conditions: rat.
Data set [6] is described as follows: Oral bioavailability in rat. To be noted: in vivo. In kind it is ADME, organism-based.
Data set [7] can be described thus: Ratio Cmax/EC50 was determined. In kind it is functional.
The nature of data set [8]: Biological half-life was measured in plasma of rats. In kind it is ADME, organism-based. To be noted: rat.
Data set [9] is described as follows: Maximum plasma concentration of compound present in rats at the dose of 37 mg/kg in 15 min. In kind it is ADME, organism-based. Further details: dose 37 mg/kg. As to conditions: rat.
Data set [10] deals with CCRF-CEM. The data set can be described thus: Compound was tested for cellular toxicity against CEM cell line. The class given is functional, cell-based. As to conditions: Homo sapiens.

Bounds are passed on as bounds.

Compound `O=C(Nc1ccccc1C(=O)N[C@@H](Cc1ccccc1)[C@H](O)[C@H](O)[C@H](Cc1ccccc1)NC(=O)c1ccccc1NC(=O)OCc1ccccn1)OCc1ccccn1` gave an EC50 in the data set with CCRF-CEM [1] of 60 nM. Moreover, affinity in [2] was put at a Ki of 0.07 nM.
For the compound `O=C(Nc1ccccc1C(=O)N[C@@H](Cc1ccccc1)[C@H](O)[C@H](O)[C@H](Cc1ccccc1)NC(=O)c1cccc(O)c1)OCc1ccccn1`, the EC50 entry in the data set with CCRF-CEM [3] is “Not Active”. The inhibition constant (Ki) in data set [2] is 0.5 nM.
As for `O=C(Nc1ccccc1C(=O)N[C@@H](Cc1ccccc1)[C@@H](O)C[C@H](Cc1ccccc1)NC(=O)c1cccc(O)c1)OCc1ccccn1`, the EC50 with CCRF-CEM [1] was over 10000 nM. In [2], this compound had a Ki of 8.6 nM.
`Cc1c(O)cccc1C(=O)N[C@@H](Cc1ccccc1)[C@@H](O)[C@@H](O)[C@H](Cc1ccccc1)NC(=O)c1ccccc1NC(=O)OCc1ccccn1` gave an EC50 with CCRF-CEM [1] of 20 nM. The Ki in data set [2] was 0.09 nM.
Take `O=C(Nc1ccccc1C(=O)N[C@@H](Cc1ccccc1)C[C@H](O)[C@H](Cc1ccccc1)NC(=O)c1cscn1)OCc1ccccn1`: the 50% effective concentration (EC50) in the data set on CCRF-CEM [1] amounted to 3000 nM. Besides, the affinity in data set [2], expressed as Ki, was 4.7 nM.
The matching figures for `O=C(Nc1ccccc1C(=O)N[C@@H](Cc1ccccc1)C[C@H](O)[C@H](Cc1ccccc1)NC(=O)c1cccc(O)c1)OCc1ccccn1`: 300 nM and 0.85 nM.
`O=C(Nc1ccccc1C(=O)N[C@@H](Cc1ccccc1)C[C@H](O)[C@H](Cc1ccccc1)NC(=O)OCc1cccnc1)OCc1ccccn1` yielded an EC50 with CCRF-CEM [1] of 350 nM. For the same compound, the Ki in data set [2] amounted to 0.01 nM.
`CC(C)(C)OC(=O)N[C@@H](Cc1ccccc1)[C@@H](O)[C@@H](O)[C@H](Cc1ccccc1)NC(=O)c1ccccc1NC(=O)OCc1ccccn1` displayed an EC50 in the data set with CCRF-CEM [1] of 400 nM. In data set [2], the Ki came out at 0.13 nM.
The compound `O=C(Nc1ccccc1C(=O)N[C@@H](Cc1ccccc1)[C@H](O)[C@H](O)[C@H](Cc1ccccc1)NC(=O)O[C@@H]1CCOC1)OCc1ccccn1` yielded an EC50 with CCRF-CEM [1] of 60 nM. This compound had a Ki in data set [2] of 0.07 nM.
In the data set with CCRF-CEM [1], `Cc1c(O)cccc1C(=O)N[C@@H](Cc1ccccc1)C[C@H](O)[C@H](Cc1ccccc1)NC(=O)c1ccccc1NC(=O)OCc1ccccn1` came in with an EC50 of over 1000 nM. Further, in data set [2], the Ki turned out to be 0.68 nM.
As for `Cc1nc(C(=O)N[C@@H](Cc2ccccc2)[C@@H](O)C[C@H](Cc2ccccc2)NC(=O)c2ccccc2NC(=O)OCc2ccccn2)cs1`, in the data set on CCRF-CEM [1], the EC50 is over 10000 nM. For the same compound, in [4], the inhibition stood at 61%.
In turn, `O=C(Nc1ccccc1C(=O)N[C@@H](Cc1ccccc1)[C@H](O)[C@H](O)[C@H](Cc1ccccc1)NC(=O)c1ccno1)OCc1ccccn1` gave an EC50 with CCRF-CEM [1] of 800 nM. Affinity in data set [2] was put at a Ki of 0.4 nM.
On the same counts, the results for `O=C(Nc1ccccc1C(=O)N[C@@H](Cc1ccccc1)[C@@H](O)[C@@H](O)[C@H](Cc1ccccc1)NC(=O)c1cccc(O)c1)OCc1ccccn1` are 900 nM and 1.7 nM.
The matching figures for `CCOC(=O)N[C@H](C(=O)N[C@@H](Cc1ccccc1)[C@@H](O)C[C@H](Cc1ccccc1)NC(=O)c1ccccc1NC(=O)OCc1ccccn1)[C@@H](C)CC`: 50 nM and 0.02 nM.
Take `O=C(Nc1ccccc1C(=O)N[C@@H](Cc1ccccc1)C[C@H](O)[C@H](Cc1ccccc1)NC(=O)OCc1cscn1)OCc1ccccn1`: the EC50 in the data set with CCRF-CEM [1] came out at 600 nM. Moreover, the Ki in data set [2] amounted to 0.62 nM.
`O=C(Nc1ccccc1C(=O)N[C@@H](Cc1ccccc1)C[C@H](O)[C@H](Cc1ccccc1)NC(=O)O[C@@H]1CCOC1)OCc1ccccn1` registered an EC50 in the data set on CCRF-CEM [1] of 30 nM. For the same compound, the Cmax in data set [5] came to 1040 nM. Moreover, the bioavailability in data set [6] turned out to be 6%. For the same compound, the Ki in [2] came out at 0.04 nM.
For `Cc1ccccc1C(=O)N[C@@H](Cc1ccccc1)[C@@H](O)C[C@H](Cc1ccccc1)NC(=O)c1ccccc1NC(=O)OCc1ccccn1`, the EC50 with CCRF-CEM [1] stood at 500 nM. Also, the affinity in [2], expressed as Ki, was 0.27 nM.
The compound `Nc1cccc(C(=O)N[C@@H](Cc2ccccc2)[C@@H](O)C[C@H](Cc2ccccc2)NC(=O)c2ccccc2NC(=O)OCc2ccccn2)c1` had an EC50 with CCRF-CEM [1] of 250 nM. In [2], this compound showed a Ki of 0.4 nM.
In the data set with CCRF-CEM [1], `Nc1ccc(C(=O)N[C@@H](Cc2ccccc2)[C@@H](O)C[C@H](Cc2ccccc2)NC(=O)c2ccccc2NC(=O)OCc2ccccn2)cc1` had an EC50 of 500 nM. Also, the Ki in data set [2] amounted to 1.5 nM.
The matching figures for `CC(C)(C)OC(=O)N[C@@H](Cc1ccccc1)[C@@H](O)C[C@H](Cc1ccccc1)NC(=O)c1ccccc1NC(=O)OCc1ccccn1`: 600 nM and 0.13 nM.
Consider `O=C(Nc1ccccc1C(=O)N[C@@H](Cc1ccccc1)C[C@H](O)[C@H](Cc1ccccc1)NC(=O)OCc1cncs1)OCc1ccccn1`, for which the EC50 in the data set with CCRF-CEM [1] was 200 nM. For the same compound, the Ratio in data set [7] was over 30. For the same compound, in data set [8], the half-life is 8 h. In data set [6], the bioavailability is 30%. In [2], this compound had a Ki of 0.03 nM.
The compound `O=C(Nc1ccccc1C(=O)N[C@@H](Cc1ccccc1)C[C@H](O)[C@H](Cc1ccccc1)NC(=O)c1ccno1)OCc1ccccn1` displayed an EC50 with CCRF-CEM [1] of 2000 nM. In [2], the affinity corresponds to a Ki of 1.2 nM.
`Cc1c(O)cccc1C(=O)N[C@@H](Cc1ccccc1)[C@@H](O)C[C@H](Cc1ccccc1)NC(=O)c1ccccc1NC(=O)OCc1ccccn1`: the concentration giving a half-maximal response (EC50) in the data set with CCRF-CEM [1] turned out to be 30 nM. This compound also displayed a half-life in [8] of 2.22 h. Also, in data set [6], the bioavailability came to 1%. Moreover, the Cmax in data set [9] worked out at 30 nM. Moreover, the affinity in data set [2] corresponds to a Ki of 0.06 nM.
As to `CC(C)(C)OC(=O)N[C@@H](Cc1ccccc1)C[C@H](O)[C@H](Cc1ccccc1)NC(=O)c1ccccc1NC(=O)OCc1ccccn1`, a half-maximal effect in the data set on CCRF-CEM [1] (EC50) was put at 490 nM. For the same compound, in [2], the Ki was 0.85 nM.
For the compound `Nc1ccc(C(=O)N[C@@H](Cc2ccccc2)[C@H](O)[C@H](O)[C@H](Cc2ccccc2)NC(=O)c2ccccc2NC(=O)OCc2ccccn2)cc1`, the EC50 entry in the data set on CCRF-CEM [3] is recorded as “Not Active”. The same compound displayed a Ki in data set [2] of 6.6 nM.
`CCOC(=O)N[C@@H](C(=O)N[C@@H](Cc1ccccc1)[C@@H](O)C[C@H](Cc1ccccc1)NC(=O)c1ccccc1NC(=O)OCc1ccccn1)C(C)C` came in with an EC50 with CCRF-CEM [1] of 7 nM. For the same compound, in [2], the affinity corresponds to a Ki of 0.03 nM.
Consider `Cc1c(N)cccc1C(=O)N[C@@H](Cc1ccccc1)[C@@H](O)C[C@H](Cc1ccccc1)NC(=O)c1ccccc1NC(=O)OCc1ccccn1`, for which the EC50 with CCRF-CEM [1] came to 60 nM. The bioavailability in data set [6] is under 2%. In [2], this compound yielded a Ki of 0.12 nM.
In the data set on CCRF-CEM [1], `CC(C)(C)OC(=O)N[C@@H](Cc1ccccc1)[C@H](O)[C@H](O)[C@H](Cc1ccccc1)NC(=O)c1ccccc1NC(=O)OCc1ccccn1` showed an EC50 of 490 nM. In addition, in the data set on CCRF-CEM [10], the IC50 came out at 21000 nM. This compound also yielded a Ki in data set [2] of 0.45 nM.

The record behind these values is ChEMBL document CHEMBL1131273, “Unsymmetric nonpeptidic HIV protease inhibitors containing anthranilamide as a P2' ligand” (Bioorg Med Chem Lett, 1998).
